Our source for the cytotoxicity values is ChEMBL document CHEMBL3507680, “University of Dundee, Gates Library screen for HepG2 cell viability”.

A short description of this data set: Human HepG2 cell viability assay in 384 well format. The format is toxicity, cell-based. The arrangement: dose 125 nL, time 70.5 hour; cytotoxicity at 70.5 h: concentration not given beside the values. Conditions: HepG2 cells, read-out: Inhibition.

For `CCC(C)(C)n1nnnc1C(c1cccs1)N1CCc2ccccc21` (stereo not drawn), the cytotoxicity at 70.5 h was -1.64%.

`O=C1COc2ccc(S(=O)(=O)N3CCOCC3)c3c2N1CCC3`: the cytotoxicity at 70.5 h turned out to be 35.1%. In the case of `O=C(O)c1ccc2c(CN3CCCC3)c[nH]c2c1` it was 5.69%; in that of `O=C(O)c1ccc2c(CN3CCOCC3)c[nH]c2c1`, 32.5%.

In the case of `CC(C)n1[nH]c(=O)c2c1NC(=O)CSC2C1CCCCC1` (stereo not drawn), the cytotoxicity at 70.5 h came out at 9.25%. In the case of `COC(=O)C(CCSC)NC(=O)Cc1c(C)nn(-c2ccccc2)c1C` (stereo not drawn) it was 1.93%. In the case of `Cc1sc(CN)nc1-c1ccc(Cl)cc1Cl` it was 5.42%; in that of `CC(=O)Nc1nc(-c2ccc(F)cc2)c[nH]1`, 36.5%; in that of `CC(=O)Nc1ncc(-c2ccc(C)cc2)[nH]1`, 4.65%.

Consider `Oc1nnc(-c2cccs2)c2sc(N3CCCC3)nc12`, for which the cytotoxicity at 70.5 h was -6.61%.

`O=c1[nH]c2nc(N3CCCCCC3)ncc2c(=O)n1-c1cccc(F)c1`: the cytotoxicity at 70.5 h was -0.0138%. In the case of `NC(=O)C1CCN(c2nc3nccc(-c4ccncc4)c3c(=O)[nH]2)CC1` it was -1.26%. Regarding `COc1cc(C2SCC(=O)Nc3n[nH]cc32)cc(OC)c1O` (stereo not drawn), the cytotoxicity at 70.5 h was -19.7%. Consider `CC(C)CCNC(=O)c1c(-n2cnnn2)sc2c1CCCC2`, for which the cytotoxicity at 70.5 h was -0.216%.

As to `O=C(Nc1cccnc1)c1nn(C2CCS(=O)(=O)C2)c2c1CCCC2` (stereo not drawn), the cytotoxicity at 70.5 h was -23.7%. In the case of `CNc1nc2c(s1)C(c1cc(Cl)ccc1F)CC(=O)N2` (stereo not drawn) it was 57.6%; in that of `O=C(Nc1ccccc1F)c1nn(C2CCS(=O)(=O)C2)c2c1CCCC2` (stereo not drawn), -7.2%.

With `O=C(c1ccc(Cl)cc1-n1cnnn1)N1CCC2(CC1)OCCO2`, the cytotoxicity at 70.5 h is -0.151%. With `COc1cc(C2SCC(=O)Nc3[nH]ncc32)cc(OC)c1OC` (stereo not drawn), the cytotoxicity at 70.5 h is -5.35%. Take `O=C1CC(c2ccccc2C(F)(F)F)c2sc(N3CCOCC3)nc2N1` (stereo not drawn): the cytotoxicity at 70.5 h is -13.5%. Consider `COc1ccc(C2CC(=O)Nc3nc(N4CCOCC4)sc32)c(OC)c1` (stereo not drawn), for which the cytotoxicity at 70.5 h is -21.3%. In the case of `CNc1nc2c(s1)C(c1ccccc1Cl)CC(=O)N2` (stereo not drawn) it was -21.9%; in that of `NC(=O)c1ccc2c(c1)nc1n2CCN(Cc2cccnc2)C1`, -1.68%; in that of `CC(C)CNC(=O)c1ccc2c(c1)nc1n2CCN(Cc2ccco2)C1`, -0.527%.

Regarding `CCOC(=O)Cc1cs/c(=N/C(=O)COc2cnc(C)cc2O)[nH]1`, the cytotoxicity at 70.5 h amounted to 5.42%. Next, `Cc1cc(O)c(OCC(=O)Nc2nccs2)cn1`: -21.7%. Regarding `COCCNC(=O)c1c(-n2cnnn2)sc2c1CCCC2`, the cytotoxicity at 70.5 h is -4.74%. In the case of `Oc1nc(N2CCOCC2)nc2nccc(-c3ccccn3)c12` it was -4.58%; in that of `CNc1nc2c(s1)C(c1ccc(F)cc1Cl)CC(=O)N2` (stereo not drawn), 2.52%. On to `CCc1c(C(=O)O)nnn1-c1cccc(C)c1C`, for which the cytotoxicity at 70.5 h was -7.95%. For the molecule `Cc1ccc(-n2nnc(C(=O)O)c2C)c(C)c1`, the cytotoxicity at 70.5 h is 0.943%. Next, `Cc1cc(=O)n(CC(=O)NCC2CCCO2)c(-c2ccc(F)cc2)n1` (stereo not drawn): 13%. On to `Cc1cc(C)n(Cc2cccc(C(=O)NCCN3CCOCC3)c2)n1`, for which the cytotoxicity at 70.5 h was -6.51%. Consider `Cc1nn(C)c2c(NCc3cccnc3)nc(C3CC3)nc12`, for which the cytotoxicity at 70.5 h is -3.52%. In the case of `Cc1nc(C)c(C(=O)N2CCc3nnc(C4CCCCN4C)n3CC2)o1` (stereo not drawn) it was 0.605%; in that of `CCn1nc(C)c(CN2CCC(c3ccn[nH]3)C2)c1C` (stereo not drawn), 4.91%. On to `O=C1CCOC[C@]2(CN(Cc3ccccc3)C[C@H]2c2cccc(F)c2)N1`, for which the cytotoxicity at 70.5 h is -2.96%. In the case of `CC(CN(C)C)Nc1nc(O)cc(Cc2ccccc2F)n1` (stereo not drawn) it was 4.28%; in that of `CC(C)CC(=O)N1CCC(Nc2nc(O)cc(-c3ccsc3)n2)CC1`, 11.2%; in that of `CC1(C(=O)NCCCOc2ccccc2F)CC(=O)N2C=CC=CC2=N1` (stereo not drawn), 0.00385%. Take `Cc1cc(C)nc(N2CCC(c3cccc(CCC(=O)O)n3)CC2)n1`: the cytotoxicity at 70.5 h is -9.41%.

`O=C(Cc1ccccc1)NCc1ccc(-c2ccccc2C(=O)O)cn1`: the cytotoxicity at 70.5 h turned out to be 1.3%. Regarding `OCCN1CCC(c2csc(Nc3cnccn3)n2)CC1`, the cytotoxicity at 70.5 h amounted to 14.5%. As for `CC(=O)N1CCCC(c2nccnc2Nc2nc(C)cc(C)n2)C1` (stereo not drawn), the cytotoxicity at 70.5 h is 13.3%. In the case of `CC(=O)NCc1ccc(-c2ccccc2C(=O)O)cn1`, the cytotoxicity at 70.5 h was -1.2%. `c1cnnc(N[C@@H]2CC[C@@H]3CN(Cc4c[nH]c5ccccc45)C[C@@H]32)c1`: the cytotoxicity at 70.5 h was 4.96%.

Regarding `O=C(c1ccc2c(c1)CCC2)N1CCn2ncnc2C1`, the cytotoxicity at 70.5 h worked out at 3.48%. On to `COCC(=O)NCCn1nc(-c2cc(C)oc2C)ccc1=O`, for which the cytotoxicity at 70.5 h is -2.12%. Next, `CNC(=O)CCc1cc(C2CCCCN2C(C)C)nc(C)n1` (stereo not drawn): -1.6%; `CNC(=O)CCc1cc(C2CCCCN2C)nc(C)n1` (stereo not drawn): -7.9%. Next, `COCCC(=O)N1Cc2nc3c(C)c(-c4cccs4)nn3c(O)c2C1`: -14.7%.

With `Cc1ccc(C(=O)N2CCC(c3noc(-c4cccnc4)n3)CC2)cn1`, the cytotoxicity at 70.5 h was -3.32%. For the molecule `Cc1c(-c2cccs2)nn2c(O)c3c(nc12)CN(C(=O)C1CC1)C3`, the cytotoxicity at 70.5 h was -4.82%. On to `Cc1cc2c(cc1Cl)C=CC1(CCN(C(=O)N3CCOCC3)CC1)O2`, for which the cytotoxicity at 70.5 h turned out to be 22%. Next, `Cc1cc2c(cc1Cl)C=CC1(CCN(CC(=O)N3CCCC3)CC1)O2`: 2.51%. Take `Cc1cc2c(cc1Cl)C=CC1(CCN(CC(=O)NC3CCCC3)CC1)O2`: the cytotoxicity at 70.5 h was -1.12%. In the case of `Cc1ccc(-c2cc(N)c(=O)n(C(C)C(N)=O)n2)o1` (stereo not drawn) it was -5.11%; in that of `O=C1CCC(c2nc(C3CCN(C(=O)Cc4cccs4)CC3)no2)N1` (stereo not drawn), -6.58%. In the case of `O[C@@H]1C[C@H]2CN(Cc3ccsc3)[C@@H](Cc3ccccc3)CN2C1`, the cytotoxicity at 70.5 h was -1.32%. Consider `Cc1cc(N(C)C)nc(C2COCCN2Cc2nccn2C)n1` (stereo not drawn), for which the cytotoxicity at 70.5 h was -6.31%. For the molecule `CN(C)c1ncc(-c2ccc(C(N)=O)cc2)c(C2CNCCO2)n1` (stereo not drawn), the cytotoxicity at 70.5 h was -4.35%. Next, `Nc1ncc(-c2ccc(F)cc2)c(C2CCCNC2)n1` (stereo not drawn): 24.3%. Next, `Cc1nn(C)c(C)c1-c1nccnc1CC1CCNCC1`: -1.07%. For `Cc1cn[nH]c1C1COCCN1C(=O)c1ccc2[nH]nnc2c1` (stereo not drawn), the cytotoxicity at 70.5 h was -4.19%.

Regarding `CNc1cc(C)nc(C2COCCN2Cc2csc(C)n2)n1` (stereo not drawn), the cytotoxicity at 70.5 h was -9.53%. Take `COc1cccc(CC(=O)N2CCC(c3ccn4nccc4n3)CC2)c1`: the cytotoxicity at 70.5 h is -3.73%.

As for `c1cc(NC2CC3(CCN(Cc4cscn4)C3)C2)ncn1` (stereo not drawn), the cytotoxicity at 70.5 h was -7.63%. With `O=C(NC[C@]1(O)CCN(Cc2ccsc2)C[C@H]1O)c1c[nH]cn1`, the cytotoxicity at 70.5 h was -9.1%.

Turning to `O[C@@H]1C[C@H]2CN(Cc3ccccc3Cl)[C@H](Cc3ccccc3)CN2C1`, the cytotoxicity at 70.5 h turned out to be 25.5%.

On to `CN[C@@H]1CCC[C@@H](Oc2ccccc2Oc2ccc(C)cc2)[C@@H]1O`, for which the cytotoxicity at 70.5 h was found to be 22.2%. `CC(=O)N1CCCC(c2ccc(CO)c(-c3c(C)noc3C)n2)C1` (stereo not drawn): the cytotoxicity at 70.5 h is 27.2%. In the case of `CNC(=O)CCc1cc(C2CCCN2C(=O)CO)nc(C)n1` (stereo not drawn) it was -5.79%. Regarding `O=C(c1cc2cccc(F)c2[nH]1)N1C[C@@H](O)[C@H](N2CCCC2)C1`, the cytotoxicity at 70.5 h is -4.92%.

Turning to `Cc1cc(N2CCC(O)(CN(C)C(=O)CCN)CC2)c2cnccc2n1`, the cytotoxicity at 70.5 h was -5.17%. In the case of `CCC1CNCc2cc3c(C)ccc(C)c3nc2O1` (stereo not drawn) it was -1.78%; in that of `Cc1ncsc1-c1cc(C(=O)NCCO)ccn1`, 21.2%; in that of `Cc1ccnc(C2CCN(C(=O)c3cnn(C)c3)CC2)n1`, 23.3%. In the case of `COCCN1CCC(Cc2cnc(-c3ccccc3C(=O)O)cn2)CC1`, the cytotoxicity at 70.5 h was found to be 8.51%.

Regarding `COCCN1C(=O)CO[C@H]2CN(Cc3ccccc3Cl)C[C@@H]21`, the cytotoxicity at 70.5 h was -9.25%. Next, `Cc1ncc(CNC(=O)CCc2cccs2)c(C2CCCN2C)n1` (stereo not drawn): -4.28%; `COc1cccc(CN2CC[C@H](NC(C)=O)[C@@H](O)CC2)c1F`: -1.47%. Next, `CC(=O)N1CCN([C@@H]2CC[C@@H](NC(=O)c3ccc(C)nc3)[C@H]2O)CC1`: -5.95%; `CCCNCc1ccc(OCc2ccc3c(c2)OCCO3)cc1`: 33.3%; `CN(C)Cc1cc(C2CCN(C(=O)C3CCCNC3)CC2)nn1C` (stereo not drawn): -5.29%. For the molecule `CCn1cc(NC(=O)CN2CCC(Oc3ccc(F)cc3)CC2)c(C)n1`, the cytotoxicity at 70.5 h was 5.01%. `CNC(=O)[C@@H]1CN(C(=O)CCOC)C[C@H]1c1ccnc(N2CCCC2)n1`: the cytotoxicity at 70.5 h is -4.83%. As for `CNC(=O)[C@@H]1CN(C(=O)C(C)C)C[C@H]1c1ccnc(N2CCCC2)n1`, the cytotoxicity at 70.5 h was -3.61%.

Take `CNC(=O)[C@@H]1CN(C(=O)C2CCC2)C[C@H]1c1ccnc(N2CCCC2)n1`: the cytotoxicity at 70.5 h is -0.284%. With `O=C(NC1CCCC1)c1ccnc(C2CCNCC2)c1`, the cytotoxicity at 70.5 h is -1.39%.

Turning to `Cc1nccn1CCCn1cncc1-c1ccc2c(c1)CCC(C)N2C` (stereo not drawn), the cytotoxicity at 70.5 h is -1.7%. Next, `Cn1cncc1CN1CCc2nc3sccc3c(=O)n2CC1`: -19.1%; `CCOc1ccccc1-c1cc(N)[nH]n1`: -5.47%.

Turning to `Cc1nccn1CCCn1cncc1-c1ccc2c(c1)CCCN2C`, the cytotoxicity at 70.5 h was -5.52%. Next, `CN(C)c1ncc(-c2cncnc2)c(C2CNCCO2)n1` (stereo not drawn): -8.74%. Next, `COc1ccc(-c2cnc(N)nc2C2CCCNC2)cc1` (stereo not drawn): 0.112%; `Cc1cc(NCCO)nc(N2CCC(Cc3ccccc3)CC2)c1C#N`: 0.669%; `COc1ccc([C@@H]2CN(Cc3ccncc3)C[C@H]2c2cc[nH]n2)cc1`: -7.91%. Take `c1ccc([C@@H]2CN(Cc3cccnc3)C[C@H]2c2cc[nH]n2)cc1`: the cytotoxicity at 70.5 h is -7.07%.
